Experimental findings from US12331052B2, “Organic compounds” (INTRA-CELLULAR THERAPIES, INC., priority 2018, dated 2025) are described below.

In one data set the target is D1 (Homo sapiens, UniProt P21728). As to the kind of experiment: Receptor binding, D1. Particulars: @ 100 nM; read-out: maximum inhibition.
The next data set deals with D2 (Homo sapiens, UniProt P14416). As to the kind of experiment: Receptor binding, D2. The settings on record: @ 100 nM; read-out: maximum inhibition.
A further data set concerns the target 5-HT2A (Homo sapiens, UniProt P28223). Put plainly: biochemical. In kind it is binding. The settings on record: read-out: maximum inhibition.
The next data set deals with SERT (Homo sapiens, UniProt P31645). As to the kind of experiment: biochemical. In kind it is binding. The settings on record: read-out: maximum inhibition.
For data set [1], the system named is tyrosine hydroxylase phosphorylation at Ser40. Put plainly: CNS phosphoprotein profile, nucleus accumbens: TH. In kind it is in vivo, mice. The settings on record: for increase in TH phosphorylation: mice nucleus accumbens, haloperidol 2 mg/kg, relative to vehicle-treated control. Here is the method:
(§1) A comprehensive molecular phosphorylation study is also carried out to examine the central nervous system (CNS) profile of the compound of Example 1. The extent of protein phosphorylation for selected key central nervous system proteins is measured in mice nucleus accumbens.
(§2) Mice were killed 30 minutes to 2 hours post-injection by focused microwave cranial irradiation, which preserves brain phosphoprotein as it exists at the time of death. Nucleus accumbens was then dissected from each mouse brain, sliced and frozen in liquid nitrogen. Samples were further prepared for phosphoprotein analysis via SDS-PAGE electrophoresis followed by phosphoprotein-specific immunoblotting, as described in Zhu H, et al., Brain Res. 2010 Jun. 25; 1342:11-23. Phosphorylation at each site was quantified, normalized to total levels of the protein (non-phosphorylated), and expressed as percent of the level of phosphorylation in vehicle-treated control mice.

The next data set deals with male C57BL/6J mice. Particulars: mouse, in vivo.
Data set [2] concerns rats. Particulars: for Motility Ratio: 30 minutes prior to charcoal bolus.
The next data set concerns C57 mice. Particulars: mouse, in vivo.
Data set [3] deals with rats. As to the kind of experiment: Pulmonary function in rats. Type of data set: in vivo. The settings on record: for RR: 60 minutes.
The next data set relates to male Sprague-Dawley rats. As to the kind of experiment: Rat tolerance/dependence study (28 day).
The conditions of data set [4]: male, Sprague-Dawley, rat, in vivo, sc, 0.3 mg/kg.
For data set [5] the following is noted: rat, in vivo.
In data set [6] the test system is NR2B phosphorylation at Tyr1472. As to the kind of experiment: CNS phosphoprotein profile, nucleus accumbens: NR2B. Particulars: 3 mg/kg; at 30-60 minutes. Type of data set: in vivo, mice. The procedure: as §1, §2
The test system of another data set is mice. As to the kind of experiment: Mouse marble-burying study (OCD model). Type of data set: in vivo. The settings on record: 0.3 mg/kg orally 30 minutes prior, of 15 marbles. An excerpt: The marble burying test is used to measure repetitive and anxiety-related behavior in rodents. It is based on the observation that rats and mice will bury either harmful or harmless objects in their bedding, and it has been used as an animal model to measure the effect of pharmacological interventions in treatment of repetitive behavior disorders, such as OCD.
MPEP is a selective mGluR5 glutamate receptor antagonist. […] Mice in groups (1) are orally administered the vehicle, and mice in group (4) are given an intraperitoneal injection of MPEP just prior to the start of the test.
The test is conducted in rectangular cages with 4-5 cm of wood chip bedding in a room with the window shades lowered and the door closed to minimize distractions. Fifteen clean marbles are evenly spaced on top of the bedding in three rows of five marbles. One mouse is placed in each cage. The mouse in the cage is left undisturbed for 30 minutes. At the end of the test, the mouse is removed and the number of marbles buried to at least ⅔ of their depth is counted.

“And” between values parts separate entries of the source, which are not always exact repeats. Identical values can stand only once. Like-named read-outs stand apart in the source and are kept apart here.

SERT, sequence (P31645 whole entry, species assumed): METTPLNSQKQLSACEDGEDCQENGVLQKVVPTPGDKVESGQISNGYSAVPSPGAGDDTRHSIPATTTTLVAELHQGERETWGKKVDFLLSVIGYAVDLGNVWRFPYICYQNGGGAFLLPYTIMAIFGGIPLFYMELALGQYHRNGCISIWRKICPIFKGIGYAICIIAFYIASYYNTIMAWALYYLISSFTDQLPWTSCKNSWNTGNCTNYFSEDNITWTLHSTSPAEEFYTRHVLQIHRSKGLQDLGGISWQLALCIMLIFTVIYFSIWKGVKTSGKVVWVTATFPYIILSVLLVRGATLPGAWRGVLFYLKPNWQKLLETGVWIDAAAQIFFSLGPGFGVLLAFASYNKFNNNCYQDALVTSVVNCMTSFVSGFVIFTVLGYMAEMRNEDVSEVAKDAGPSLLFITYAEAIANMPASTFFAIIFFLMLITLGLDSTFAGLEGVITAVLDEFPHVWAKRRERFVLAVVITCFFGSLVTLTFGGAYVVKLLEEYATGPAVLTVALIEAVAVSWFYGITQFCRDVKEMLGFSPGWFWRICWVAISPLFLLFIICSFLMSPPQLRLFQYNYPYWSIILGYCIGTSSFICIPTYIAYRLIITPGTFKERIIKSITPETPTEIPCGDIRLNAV
D1, sequence (P21728 whole entry): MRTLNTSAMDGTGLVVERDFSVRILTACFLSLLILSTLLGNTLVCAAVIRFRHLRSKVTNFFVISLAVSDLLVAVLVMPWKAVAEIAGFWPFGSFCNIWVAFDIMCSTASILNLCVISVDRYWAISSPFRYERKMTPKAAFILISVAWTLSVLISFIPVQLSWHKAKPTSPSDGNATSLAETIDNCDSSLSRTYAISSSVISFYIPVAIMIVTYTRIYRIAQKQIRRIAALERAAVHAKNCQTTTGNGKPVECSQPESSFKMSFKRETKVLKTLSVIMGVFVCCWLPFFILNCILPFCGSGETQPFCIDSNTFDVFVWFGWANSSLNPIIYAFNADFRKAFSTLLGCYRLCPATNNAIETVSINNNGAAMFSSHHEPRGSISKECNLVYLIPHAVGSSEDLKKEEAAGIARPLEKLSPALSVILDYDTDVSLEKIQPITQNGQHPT
5-HT2A, sequence (P28223 whole entry): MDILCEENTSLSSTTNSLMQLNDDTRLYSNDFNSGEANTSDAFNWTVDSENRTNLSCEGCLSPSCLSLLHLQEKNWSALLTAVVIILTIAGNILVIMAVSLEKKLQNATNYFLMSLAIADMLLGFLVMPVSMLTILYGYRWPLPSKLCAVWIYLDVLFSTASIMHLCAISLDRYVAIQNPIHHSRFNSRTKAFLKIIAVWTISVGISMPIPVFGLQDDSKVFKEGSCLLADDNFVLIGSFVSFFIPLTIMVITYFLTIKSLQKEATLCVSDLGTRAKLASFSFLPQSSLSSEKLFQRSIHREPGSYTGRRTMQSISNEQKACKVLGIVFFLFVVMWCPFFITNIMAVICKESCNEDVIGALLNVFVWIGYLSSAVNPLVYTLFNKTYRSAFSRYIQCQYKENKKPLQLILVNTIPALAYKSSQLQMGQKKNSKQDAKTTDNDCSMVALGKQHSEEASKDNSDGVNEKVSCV
D2, sequence (P14416 1-414 isoform P14416-2): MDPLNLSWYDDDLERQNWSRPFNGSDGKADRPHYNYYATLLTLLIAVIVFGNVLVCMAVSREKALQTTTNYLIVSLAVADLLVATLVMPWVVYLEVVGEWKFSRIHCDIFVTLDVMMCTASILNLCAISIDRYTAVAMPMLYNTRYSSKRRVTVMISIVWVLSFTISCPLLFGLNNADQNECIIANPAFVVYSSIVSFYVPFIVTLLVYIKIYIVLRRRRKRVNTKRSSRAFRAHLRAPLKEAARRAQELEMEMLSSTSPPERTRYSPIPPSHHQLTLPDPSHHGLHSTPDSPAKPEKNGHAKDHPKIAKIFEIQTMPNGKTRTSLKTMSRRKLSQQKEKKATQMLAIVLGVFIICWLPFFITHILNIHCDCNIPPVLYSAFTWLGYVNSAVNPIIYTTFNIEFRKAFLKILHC

On to `O=C1CN2c3c(cccc3[C@@H]3CN(CCCOc4ccc(Br)cc4)CC[C@@H]32)N1` [Example 24, (6bR,10aS)-8-(3-(4-bromophenoxy)propyl)-6b,7,8,9,10,10a-hexahydro-1H-pyrido[3′,4′:4,5]pyrrolo[1,2,3-de]quinoxalin-2(3H)-one], for which the inhibition (as a rule, the drop in the measured response relative to a control, in per cent) at 0.1 µM on D1 was determined as 3%; at D2, 8%; at 5-HT2A, 72%. At SERT, the inhibition at 0.2 µM is 44%.
For `O=C(CCCN1CCC(O)(c2ccc(Cl)cc2)CC1)c1ccc(F)cc1` [haloperidol], the “increase in TH phosphorylation” value in [1] is listed as “greater than 400%”.
With `Cc1nc2n(c(=O)c1CCN1CCC(c3noc4cc(F)ccc34)CC1)CCCC2` [risperidone], the “increase in TH phosphorylation” value in [1] is given as “greater than 500%”.
Regarding `Cc1ccc(OCCCN2CC[C@H]3[C@@H](C2)c2cccc4c2N3CC(=O)N4)cc1` [Example 25, (6bR,10aS)-8-(3-(p-tolyloxy)propyl)-6b,7,8,9,10,10a-hexahydro-1H-pyrido-[3′,4′:4,5]pyrrolo[1,2,3-de]quinoxalin-2(3H)-one], the inhibition at 0.1 µM on D1 came to 14%; on D2 it was 21%; on 5-HT2A, 62%. At SERT, the inhibition at 0.2 µM stood at 10%.
For the molecule `O=C1CN2c3c(cccc3[C@@H]3CN(CCCOc4ccc(I)cc4)CC[C@@H]32)N1` [Example 23, (6bR,10aS)-8-(3-(4-iodophenoxy)propyl)-6b,7,8,9,10,10a-hexahydro-1H-pyrido[3′,4′:4,5]pyrrolo[1,2,3-de]quinoxalin-2(3H)-one], the inhibition at 0.1 µM was 3% at D1, 14% on D2 and 81% at 5-HT2A. At SERT, the inhibition at 0.2 µM was 48%.
With `CC(C)N1C(=O)CN2c3c(cccc31)[C@@H]1CN(CCCOc3ccc(F)cc3)CC[C@@H]12` [Example 22, (6bR,10aS)-8-(3-(4-fluorophenoxy)propyl)-3-isopropyl-6b,7,8,9,10,10a-hexa-hydro-1H-pyrido[3′,4′:4,5]pyrrolo[1,2,3-de]quinoxalin-2(3H)-one], the inhibition at 0.1 µM was determined as 70% at D1, 39% at D2 and 81% at 5-HT2A. Besides, the inhibition at 0.2 µM at SERT stood at 11%.
On to `C=CCN1CC[C@]23c4c5ccc(O)c4O[C@H]2C(=O)CC[C@@]3(O)[C@H]1C5` [Naloxone, naloxone], for which, in the data set with male C57BL/6J mice, the “Body Weight Loss” value was found to be 0.5%, the Jumps is 0, the “Paw Tremors” value is reported as 0.87 and the “Total Number of Signs” value came out at 2.2.
For the molecule `O=C1CN2c3c(cccc3[C@@H]3CN(CCCOc4cccc(F)c4)CC[C@@H]32)N1` [Example 20, (6bR,10aS)-8-(3-(3-fluorophenoxy)propyl)-6b,7,8,9,10,10a-hexahydro-1H-pyrido[3′,4′:4,5]pyrrolo[1,2,3-de]quinoxalin-2(3H)-one], the inhibition at 0.1 µM stood at 32% on D1, 14% at D2 and 79% at 5-HT2A. For the same molecule, at SERT, the inhibition at 0.2 µM was 8%.
Consider `CN1CC[C@]23c4c5ccc(O)c4O[C@H]2[C@@H](O)C=C[C@H]3[C@H]1C5` [Morphine, morphine, reference compound], for which, in the data set with rats [2] (5 mg/kg SC), the “reduction in gastric motility” value is roughly 50%.
For the molecule `O=C1CN2c3c(cccc3[C@@H]3CN(CCCOc4ccc(F)cc4)CC[C@@H]32)N1` [Example 1, (6bR,10aS)-8-(3-(4-fluorophenoxy)propyl)-6b,7,8,9,10,10a-hexahydro-1H-pyrido[3′,4′:4,5]pyrrolo[1,2,3-de]quinoxalin-2(3H)-one], the “effect on gastrointestinal motility” value in the data set on rats [2] (at a dose up to 3 mg/kg) is given as “no significant effect”. For the same molecule, the “effect on tyrosine hydroxylase phosphorylation at Ser40” value in data set [1] (3 mg/kg, at 30 minutes or 60 minutes) was “no significant effect”. Also, the “Mean Behavior Rating (0-4)” value with C57 mice (po, 3 mg/kg) was 0.9 and 0.8 and 1.5; with C57 mice (sc, 1 mg/kg), 1.0 and 1.9 and 1.1. Further, the RR with rats [3] (0.3 mg/kg SC) amounted to 181 breaths/min; in the data set with rats [3] (1.0 mg/kg SC), 203 breaths/min; with rats [3] (3.0 mg/kg SC), 190 breaths/min. Also, in the data set with rats [3] (0.3, 1.0 and 3.0 mg/kg SC, 0, 15, 60, 120, 240 minutes), the “respiratory rate, tidal volume and minute volume vs vehicle” value is recorded as “no significant differences”. In addition, the “physical dependence upon cessation of dosing” value in the data set with male Sprague-Dawley rats (0.3 and 3 mg/kg) is on record as “not to produce a syndrome of physical dependence”. For the same molecule, the “tolerance during subcutaneous dosing for 28 days” value in the data set on male Sprague-Dawley rats (0.3 and 3 mg/kg four times) is recorded as “does not produce tolerance”. Besides, in the data set with male Sprague-Dawley rats (0.3 and 3 mg/kg s.c. four times per day, on-dose or withdrawal phase), the “effect on animal body weight, food and water intake or body temperature” value is reported as “no significant effect”. The “main behavioral and physical signs” value with male Sprague-Dawley rats (higher dose (3 mg/kg)) is “hunched posture, subdued behavior, Straub tail, tail rattle and piloerection”. Besides, in the data set with male Sprague-Dawley rats (repeated administration at 0.3 mg/kg), the “predominant behavioral and physical effects, dosing phase” value was “hunched posture, Straub tail and piloerection”. The molecule also returned a peak plasma concentrations in data set [4] of 15 to 38 ng/mL. The same molecule yielded a Bioavailability in data set [5] (iv, 1 mg/kg) of 100%. Also, the t-1/2 in data set [5] (po, 10 mg/kg) came to 3.1 h; in [5] (sc, 3 mg/kg), 9.5 h. Further, the “effect on NR2B phosphorylation at Tyr1472” value in data set [6] is “no significant effect”. Moreover, in the data set on mice, the “Marbles Buried” value was determined as 9.3.
In the case of `O=C1CN2c3c(cccc3[C@@H]3CN(CCCc4n[nH]c5cc(F)ccc45)CC[C@@H]32)N1` [Example 2, (6bR,10aS)-8-(3-(6-fluoro-1H-indazol-3-yl)propyl)-6b,7,8,9,10,10a-hexahydro-1H-pyrido[3′,4′:4,5]pyrrolo[1,2,3-de]quinoxalin-2(3H)-one], the figures for the “Motility Ratio” value in the data set on rats [2] (0.3 mg/kg SC), in the data set on rats [2] (1 mg/kg SC) and in the data set on rats [2] (3 mg/kg SC) were 0.50, 0.55 and 0.50, respectively.
For the molecule `O=C1CN2c3c(cccc3[C@@H]3CN(CCCOc4ccccc4F)CC[C@@H]32)N1` [Example 21, (6bR,10aS)-8-(3-(2-fluorophenoxy)propyl)-6b,7,8,9,10,10a-hexahydro-1H-pyrido[3′,4′:4,5]pyrrolo[1,2,3-de]quinoxalin-2(3H)-one], the inhibition at 0.1 µM came to 18% on D1, 28% on D2 and 88% at 5-HT2A. Besides, the inhibition at 0.2 µM on SERT is 5%.
